Test results reported in patent US20240197666A1, “DITERPENOID COMPOUNDS THAT ACT ON PROTEIN KINASE C (PKC)” (K-Gen Therapeutics, Inc., priority 2021, published 2024).
Like-named read-outs stand apart in the source and are kept apart here.

What was measured:
A549 cell line = assay: Proliferation of A549 (CellTiter Glo); assay type: cell-based; conditions: read-out: IC50 μM (A549 Cell Line)
Experimental: (§1) The diterpenoid compounds were tested in A549, a non-small cell lung cancer cell line harboring a K-Ras activating mutation. Briefly, A549 cells at a density of 1,000 cells/well were seeded in 96-well plates and incubated at 37° C. for 24 hours. A series of different concentrations of compound stocks (500×) were prepared by 3-fold serial dilution in DMSO. These compounds were further diluted in culture media and then added to cells so that the final DMSO concentration was not exceeding 0.25%. After 96 hours of incubation, 50 μL of CellTiter Glo reagent (Promega) was added to each well and luminescence was measured after 10 minutes using EnVision (PerkinElmer). Luminescence from cells treated with DMSO alone was set as Max and % of inhibition was calculated as follows: Inhibition %=(Max-Sample value)/Max×100. Data was analyzed using XL-fit software (ID Business Solutions Ltd.) and IC50, relative IC50, and % of top inhibition was calculated. Some of the compounds in this disclosure were very potent in blocking proliferation of A549 lung cancer cells at low nM range. In addition, potency of inhibiting A549 proliferation correlated well with its binding affinity to PKCs for this series of compounds. In other words, higher affinity binders had stronger inhibitory effects on A549 proliferation. This further support the notion that activation, rather than inhibition, of certain PKC isoforms is required to block proliferation of cancer cells, some of which may harbor K-Ras mutations. This is in sharp contrast to previous literature and common belief that inhibition of PKC is necessary to block cancer cell growth (Kang, 2014, New Journal of Science, 2014:1-36). Data presented here is in agreement with recent findings that many loss-of-function but not gain-of-function mutations of PKC isoforms have been identified in many human cancers (Antal et al., 2015, Cell, 160:489-502).

human PBMC cells = assay: Cytokine/chemokine gene expression in human PBMC (TaqMan); assay type: cell-based; conditions: 4 h, 1 μM;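 on Gene Relative Expression CCL2: 2^-ΔΔCt fold change vs DMSO control normalized to 18S and GAPDH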;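 on Gene Relative Expression GM-CSF: 2^-ΔΔCt fold change vs DMSO control normalized to 18S and GAPDH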;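 on Gene Relative Expression IFN-α: 2^-ΔΔCt fold change vs DMSO control normalized to 18S and GAPDH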;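 on Gene Relative Expression IFNγ: 2^-ΔΔCt fold change vs DMSO control normalized to 18S and GAPDH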
Experimental: Each treatment condition was performed in duplicates.

[1] = test system: NFκB-driven transcription in HeLa-NFκB luciferase reporter cell line; assay: NFκB luciferase reporter assay
HL-60 (Leukemia) = assay: Proliferation of HL-60; assay type: cell-based
Experimental: as §1
(§2) The compounds in this disclosure were tested for their potency in blocking proliferation of a few other cancer cells lines, including K-Ras mutant pancreatic cell lines Panc2.13 and KP-4, leukemia cell line HL-60, and lymphoma cell lines Namalwa and Mino. Similar procedures as in Example 67 were followed. Initial cell numbers seeded in 96-well plates were different for different cell lines: 3000 cells/well for Panc2.13; 800-1000 cells/well for KP-4; 5000 cells/well for HL-60; 5000-10000 cells/well for Namalwa and Mino. A ratio of (IC50 of K101)/(IC50 of compound) (data in parenthesis in Table 5) was used to normalize the compound potency from different assay batches to a common comparator K101.

Namalwa (Lymphoma) = assay: Proliferation of Namalwa; assay type: cell-based
Experimental: as §1, §2

Mino (Lymphoma) = assay: Proliferation of Mino; assay type: cell-based
Experimental: as §1, §2

[2] = Homo sapiens, A549, 96 hours, CellTiter Glo

Compound: CC1=C[C@H]2[C@@]3(O)[C@H](C)C[C@]4(OC(=O)[C@@H](N)CC5CCCC5)[C@H]([C@@H]3C=C(CO)C[C@]2(O)C1=O)C4(C)C
- IC50 (A549 cell line; Homo sapiens, A549, 96 h): 0.1 to 0.2 µM

Compound: CC1=C[C@H]2[C@@]3(O)[C@H](C)C[C@]4(OC(=O)[C@@H](N)C56CC(F)(C5)C6)[C@H]([C@@H]3C=C(CO)C[C@]2(O)C1=O)C4(C)C
- IC50 (A549 cell line; 96 hours, CellTiter Glo): 10 to 30 µM

Compound: CCOCc1nc2c(N)nc3ccccc3c2n1CC(C)(C)O [Resiquimod, reference compound]
- Gene Relative Expression CCL2 (human PBMC cells): 3.73
- Gene Relative Expression GM-CSF (human PBMC cells): 8.79
- Gene Relative Expression IFN-α (human PBMC cells): 1.47
- Gene Relative Expression IFNγ (human PBMC cells): 1.28
- Gene Relative Expression IL-1β (human PBMC cells): 101.63
- Gene Relative Expression IL-2 (human PBMC cells): 1.21
- Gene Relative Expression IL-6 (human PBMC cells): 487.14
- Gene Relative Expression IL-8 (human PBMC cells): 9.87
- Gene Relative Expression IL-10 (human PBMC cells): 5.65
- Gene Relative Expression IL-12p40 (human PBMC cells): 786.39
- Gene Relative Expression IL-12p70 (human PBMC cells): 2.48
- Gene Relative Expression IL-13 (human PBMC cells): 3.52
- Gene Relative Expression IL-18 (human PBMC cells): 1.33
- Gene Relative Expression ISG15 (human PBMC cells): 14.75
- Gene Relative Expression MIP1a (CCL3) (human PBMC cells): 47.71
- Gene Relative Expression MX1 (human PBMC cells): 17.00
- Gene Relative Expression OAS1 (human PBMC cells): 12.66
- Gene Relative Expression TNF-α (human PBMC cells): 7.38

Compound: CC1=C[C@H]2[C@@]3(O)[C@H](C)C[C@]4(OC(=O)C(Cc5ccccc5)C(=O)O)[C@H]([C@@H]3C=C(CO)C[C@]2(O)C1=O)C4(C)C (stereo partly drawn)
- IC50 (A549 cell line; Homo sapiens, A549, 96 h): 1 to 2 µM

Compound: CC1=C[C@H]2[C@@]3(O)[C@H](C)C[C@]4(OC(=O)[C@@H](N)CCCCCCc5ccccc5)[C@H]([C@@H]3C=C(COC(=O)[C@@H](N)C(C)C)C[C@]2(O)C1=O)C4(C)C
- IC50 (A549 cell line; [2]): 0.01 to 0.03 µM

Compound: CC1=C[C@H]2[C@@]3(O)[C@H](C)C[C@]4(OC(=O)CCc5c[nH]c6ncccc56)[C@H]([C@@H]3C=C(CO)C[C@]2(O)C1=O)C4(C)C
- IC50 (A549 cell line; Homo sapiens, A549, 96 h): 2 to 5 µM

Compound: CC1=C[C@H]2[C@@]3(O)[C@H](C)C[C@]4(O)[C@H]([C@@H]3C=C(CO)C[C@]2(O)C1=O)C4(C)C
- IC50 (A549 cell line; Homo sapiens, A549, 96 h): > 30 µM

Compound: CC1=C[C@H]2[C@@]3(O)[C@H](C)C[C@]4(OC(=O)[C@H](N)C56CC(F)(C5)C6)[C@H]([C@@H]3C=C(CO)C[C@]2(O)C1=O)C4(C)C
- IC50 (A549 cell line; 96 hours, CellTiter Glo): 10 to 30 µM

Compound: CC1=C[C@H]2[C@@]3(O)[C@H](C)C[C@]4(OC(=O)CCCCCCCCCCC(=O)O)[C@H]([C@@H]3C=C(CO)C[C@]2(O)C1=O)C4(C)C
- IC50 (A549 cell line; Homo sapiens, A549, 96 h): 10 to 30 µM

Compound: CC1=C[C@H]2[C@@]3(O)[C@H](C)C[C@]4(OC(=O)C[C@@H](N)c5ccccc5)[C@H]([C@@H]3C=C(CO)C[C@]2(O)C1=O)C4(C)C
- IC50 (A549 cell line; Homo sapiens, A549, 96 h): 2 to 5 µM

Compound: COc1ccc2c(c1)c(C1=C(c3c[nH]c4ccccc34)C(=O)NC1=O)cn2CCCN(C)C [Gö6983, reference compound]
- block of NFκB activation induced by PKC activator compounds ([1]; PKC inhibitor added at the same time as the PKC activator compounds): completely block

Compound: CC1=C[C@H]2[C@@]3(O)[C@H](C)C[C@]4(OC(=O)[C@@H](N)C56CC(C(F)(F)F)(C5)C6)[C@H]([C@@H]3C=C(CO)C[C@]2(O)C1=O)C4(C)C
- IC50 (A549 cell line; [2]): 0.06 to 0.1 µM

Compound: CCCCCCCCCCCCCCCCCCC(CC(=O)O[C@@]12C[C@@H](C)[C@@]3(O)[C@@H](C=C(CO)C[C@]4(O)C(=O)C(C)=C[C@@H]34)[C@@H]1C2(C)C)C(=O)O (stereo partly drawn)
- IC50 (A549 cell line; Homo sapiens, A549, 96 h): 5 to 10 µM

Compound: CC1=C[C@H]2[C@@]3(O)[C@H](C)C[C@]4(OC(=O)CCCc5ccccc5)[C@H]([C@@H]3C=C(CO)C[C@]2(O)C1=O)C4(C)C
- IC50 (A549 cell line; Homo sapiens, A549, 96 h): 0.01 to 0.03 µM
- ratio (IC50 of K101)/(IC50 of compound) HL-60 (HL-60 (Leukemia)): 32.7
- IC50 (HL-60 (Leukemia); Homo sapiens, HL-60, read-out: IC50 HL-60 (Leukemia)): 10 to 30 nM
- ratio (IC50 of K101)/(IC50 of compound) Namalwa (Namalwa (Lymphoma)): 8.63
- IC50 (Namalwa (Lymphoma); read-out: IC50 Namalwa (Lymphoma)): 1 to 10 nM
- ratio (IC50 of K101)/(IC50 of compound) Mino (Mino (Lymphoma)): 37.5
- IC50 (Mino (Lymphoma); Homo sapiens, MINO, read-out: IC50 Mino (Lymphoma)): 1 to 10 nM
- EC50 ([1]; Homo sapiens, HeLa, 16 h, read-out: NFκB-luc HeLa cells EC50 (μM)): 0.01 to 0.03 µM

Compound: CC1=C[C@H]2[C@@]3(O)[C@H](C)C[C@]4(OC(=O)[C@@H](N)CCS(C)(=O)=O)[C@H]([C@@H]3C=C(CO)C[C@]2(O)C1=O)C4(C)C
- IC50 (A549 cell line; Homo sapiens, A549, 96 h): > 30 µM
